Results as given in US10351547B2, “Somatostatin modulators and uses thereof” (priority 2016, dated 2019).

Molecular target: human SSTR2 (Homo sapiens (Human), UniProt P30874)
Assay: Human SSTR2 intracellular cAMP functional assay for agonists (HTRF)
Type: cell-based
Settings: CHO-K1 cells stably expressing human SSTR2; NKH477-stimulated cAMP; read-out: EC50 (inhibition of cAMP activities via human SST2R)
How it was run: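 Cells bearing human SSTR2 exposed to compound for 20 minutes at 37 °C; after lysis, cAMP measured by time-resolved fluorescence (HTRF) and converted via a standard curve. EC50 calculated from cAMP versus compound concentration.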

human SSTR2, sequence (P30874 whole entry): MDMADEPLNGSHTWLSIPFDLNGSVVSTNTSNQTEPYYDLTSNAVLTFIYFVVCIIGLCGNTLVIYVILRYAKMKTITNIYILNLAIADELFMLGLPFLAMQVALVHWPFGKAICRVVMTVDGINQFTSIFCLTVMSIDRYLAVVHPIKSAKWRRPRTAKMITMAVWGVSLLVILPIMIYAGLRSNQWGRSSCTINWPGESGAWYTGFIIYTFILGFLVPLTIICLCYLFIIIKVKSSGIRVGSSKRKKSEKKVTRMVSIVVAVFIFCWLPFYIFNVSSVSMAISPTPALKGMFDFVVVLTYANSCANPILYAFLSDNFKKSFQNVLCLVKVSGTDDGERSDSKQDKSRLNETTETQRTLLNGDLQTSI

`COC(=O)Nc1c(C#N)cccc1-c1ccc2ncc(-c3cc(F)cc(F)c3)c(N3CCC(N)CC3)c2c1` [2-148, methyl N-{2-[4-(4-aminopiperidin-1-yl)-3-(3,5-difluorophenyl)quinolin-6-yl]-6-cyanophenyl}carbamate] gave an EC50 of under 10 nM.
